US20250171452A1 (Viscient Bio, Inc., priority 2022, published 2025)
Where two headings read alike, the source gives them in different places.

What was measured:
IDO2 = IDO2 (Homo sapiens (Human), UniProt Q6ZQW0); test: Cellular IDO2 assay, doxycycline and 5-methoxy-L-tryptophan medium, colorimetric; format: cell-based
[1] = target: Indoleamine 2,3-dioxygenase 1 (IDO1) (Homo sapiens (Human), UniProt P14902); test: Cellular IDO1 assay: kynurenine production in IFN-γ-stimulated HeLa cells, colorimetric
[2] = cellular level, 72 h incubation, signal at 480 nm

Sequence of Indoleamine 2,3-dioxygenase 1 (IDO1) (P14902 whole entry): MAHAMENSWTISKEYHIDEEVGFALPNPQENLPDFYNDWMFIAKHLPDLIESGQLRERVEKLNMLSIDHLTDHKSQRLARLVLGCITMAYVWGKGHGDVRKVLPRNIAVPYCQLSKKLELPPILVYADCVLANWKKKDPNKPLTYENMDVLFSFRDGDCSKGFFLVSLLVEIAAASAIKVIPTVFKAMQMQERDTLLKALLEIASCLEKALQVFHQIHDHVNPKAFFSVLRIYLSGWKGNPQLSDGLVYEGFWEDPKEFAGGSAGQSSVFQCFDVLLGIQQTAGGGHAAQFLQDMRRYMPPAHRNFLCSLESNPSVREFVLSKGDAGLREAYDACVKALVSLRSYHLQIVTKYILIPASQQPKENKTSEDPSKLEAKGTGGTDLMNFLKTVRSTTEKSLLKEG
Sequence of IDO2 (Q6ZQW0 whole entry, species assumed): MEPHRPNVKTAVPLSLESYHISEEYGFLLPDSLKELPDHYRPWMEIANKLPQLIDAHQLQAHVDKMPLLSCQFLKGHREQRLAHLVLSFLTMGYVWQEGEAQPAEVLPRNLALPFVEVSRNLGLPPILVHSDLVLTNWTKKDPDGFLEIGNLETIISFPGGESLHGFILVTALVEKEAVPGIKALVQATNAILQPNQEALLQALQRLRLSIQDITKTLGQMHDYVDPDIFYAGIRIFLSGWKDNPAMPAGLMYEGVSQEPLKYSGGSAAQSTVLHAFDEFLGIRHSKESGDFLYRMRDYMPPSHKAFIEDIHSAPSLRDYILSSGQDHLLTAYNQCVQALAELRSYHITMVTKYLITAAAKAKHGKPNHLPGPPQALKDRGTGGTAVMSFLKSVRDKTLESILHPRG

IC50 [1] [µM]	IC50 (IDO2; [2]) [µM]	Compound	IC50 (IDO2) [µM]
0.05 to 0.5	0.05 to 0.5	O=C1c2cc(C(=O)N3CCNCC3)ccc2-n2c1nc1cc(Cl)cc(Cl)c1c2=O [Compound 25, 1,3-dichloro-8-(piperazine-1-carbonyl)indolo[2,1-b]quinazoline-6,12-dione]	
< 0.05	< 0.05	Cc1cc(C)c2nc3n(c(=O)c2c1)-c1ccc([N+](=O)[O-])cc1C3=O [Compound 48, 2,4-Dimethyl-8-nitroindolo[2,1-b]quinazoline-6,12-dione]	
0.05 to 0.5	0.05 to 0.5	CN1CCN(Cc2ccc3c(=O)n4c(nc3c2)C(=O)c2cc(F)ccc2-4)CC1 [Compound 15, 8-Fluoro-3-((4-methylpiperazin-1-yl)methyl)indolo[2,1-b]quinazoline-6,12-dione]	
0.05 to 0.5	0.05 to 0.5	O=C1c2c(F)cc(F)cc2NC2C(O)c3cc([N+](=O)[O-])ccc3N12 (centres unmarked) [Compound 32, 1,3-Difluoro-6-hydroxy-8-nitro-5a,6-dihydroindolo[2,1-b]quinazolin-12(5H)-one]	
0.05 to 0.5	< 0.05	O=c1c2c(Cl)cccc2[nH]c2cc3cc([N+](=O)[O-])ccc3n12 [Compound 39, 1-Chloro-8-nitroindolo[2,1-b]quinazolin-12(5H)-one]	
0.05 to 0.5	< 0.05	Cc1cc(F)cc2c(=O)n3c(nc12)C(=O)c1cc([N+](=O)[O-])ccc1-3 [Compound 49, 2-Fluoro-4-methyl-8-nitroindolo[2,1-b]quinazoline-6,12-dione]	
< 0.05	< 0.05	N#Cc1ccc2c(c1)C(=O)c1nc3cc(Cl)ccc3c(=O)n1-2 [Compound 3, 3-Chloro-6,12-dioxo-6,12-dihydroindolo[2,1-b]quinazoline-8-carbonitrile]	
0.05 to 0.5	0.05 to 0.5	CNC(=O)c1ccc2c(c1)C(=O)c1nc3cc(Cl)cc(Cl)c3c(=O)n1-2 [Compound 20, 1,3-Dichloro-N-methyl-6,12-dioxo-6,12-dihydroindolo[2,1-b]quinazoline-8-carboxamide]	
0.05 to 0.5	0.05 to 0.5	NC(=O)c1ccc2c(c1)C(=O)c1nc3cc(Cl)ccc3c(=O)n1-2 [Compound 8, 3-Chloro-6,12-dioxo-6,12-dihydroindolo[2,1-b]quinazoline-8-carboxamide]	
0.05 to 0.5	0.05 to 0.5	Cc1ccc(F)c2c(=O)n3c(nc12)C(=O)c1cc([N+](=O)[O-])ccc1-3 [Compound 40]	
0.05 to 0.5	< 0.05	N#Cc1ccc2c(c1)C(=O)c1nc3c(Br)cccc3c(=O)n1-2 [Compound 46, 4-bromo-6,12-dioxo-6,12-dihydroindolo[2,1-b]quinazoline-8-carbonitrile]	
0.05 to 0.5	< 0.05	NS(=O)(=O)c1ccc2c(c1)C(=O)c1nc3cc(F)ccc3c(=O)n1-2 [Compound 27]	
0.05 to 0.5	< 0.05	Cc1c(F)ccc2c(=O)n3c(nc12)C(=O)c1cc([N+](=O)[O-])ccc1-3 [Compound 30, 3-Fluoro-4-methyl-8-nitroindolo[2,1-b]quinazoline-6,12-dione]	
> 0.5	> 0.5	NS(=O)(=O)NCCNC(=O)c1ccc2c(c1)C(=O)c1nc3cc(Cl)ccc3c(=O)n1-2 [Compound 13, 3-Chloro-6,12-dioxo-N-(2-(sulfamoylamino)ethyl)-6,12-dihydroindolo[2,1-b]quinazoline-8-carboxamide]	
> 0.5	0.05 to 0.5	O=C1c2cc([N+](=O)[O-])ccc2-n2c1nc1c(Br)cc(Cl)cc1c2=O [Compound 47, 4-Bromo-2-chloro-8-nitroindolo[2,1-b]quinazoline-6,12-dione]	
< 0.05	< 0.05	O=[N+]([O-])c1ccc2c(c1)C(O)C1Nc3cc(F)ccc3CN21 (centres unmarked) [Compound 21, 3-Fluoro-8-nitro-5H,5aH,6H,12H-indolo[2,1-b]quinazolin-6-ol]	
0.05 to 0.5	< 0.05	O=C1c2cc([N+](=O)[O-])ccc2-n2c1nc1c(Br)cccc1c2=O [Compound 43, 4-Bromo-8-nitroindolo[2,1-b]quinazoline-6,12-dione]	
0.05 to 0.5	< 0.05	O=C1c2cc([N+](=O)[O-])ccc2-n2c1nc1c(F)cccc1c2=O [Compound 41, 4-Fluoro-8-nitroindolo[2,1-b]quinazoline-6,12-dione]	

Compound	IC50 [1] [µM]	IC50 (IDO2; [2]) [µM]	IC50 (IDO2) [µM]
O=C1c2cc([N+](=O)[O-])ccc2-n2c1nc1cc(F)cc(F)c1c2=O [Compound 11, 1,3-Difluoro-8-nitroindolo[2,1-b]quinazoline-6,12-dione]	0.05 to 0.5		< 0.05
O=C1c2cc([N+](=O)[O-])ccc2-n2c1nc1c(Cl)cccc1c2=O [Compound 36, 4-Chloro-8-nitroindolo[2,1-b]quinazoline-6,12-dione]	0.05 to 0.5	< 0.05	
O=C(O)c1ccc2c(c1)C(=O)c1nc3cc(Cl)ccc3c(=O)n1-2 [Compound 4, 3-Chloro-6,12-dioxo-6,12-dihydroindolo[2,1-b]quinazoline-8-carboxylic Acid]	> 0.5	> 0.5	
O=C1c2cc([N+](=O)[O-])ccc2-n2c1nc1cccc(F)c1c2=O [Compound 37, 1-Fluoro-8-nitroindolo[2,1-b]quinazoline-6,12-dione]	< 0.05		< 0.05
